From patent publication US8680012B2, “4-phenyl-pyrane-3,5-diones,4-phenyl-thiopyrane-3,6-diones and cyclohexanetriones as novel herbicides” (Syngenta Crop Protection LLC, priority 2006, dated 2014)

These molecules were tested on Alopecurus myosuroides (ALOMY) (assay: Example B pre-emergence herbicidal activity, glasshouse pot test). Conditions: 312 h, rate 250 g/ha, evaluated after 13 days, read-out: Pre-emergence activity ALOMY (100=total damage to plant; 0=no damage to plant).
Type: in vivo
Procedure, shortened: (§1)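 Pot-grown plants sprayed one day after sowing (pre-emergence) or after 8 days (post-emergence) with compound in acetone/water 50:50 containing 0.5% Tween 20. Glasshouse at 24/16 °C day/night, 14 h light, 65% humidity; damage scored after 13 days, 0 = none to 100 = total.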

Point of comparison: `CCc1ccc(-c2ccc(Cl)c(F)c2)cc1C1=C(O)C(C)(C)C(=O)C(C)(C)C1=O` [Compound B-12], pest or weed control at 250 g/ha 0%. Against it:
- CCc1ccc(-c2ccc(Cl)nc2)cc1C1=C(O)C(C)(C)C(=O)C(C)(C)C1=O [Compound B-9] — the same, 0%
- CCc1ccc(-c2ccc(Cl)c(C(F)(F)F)c2)cc1C1=C(O)C(C)(C)C(=O)C(C)(C)C1=O [Compound B-10] — the same, 0%

Each molecule was assayed on Amaranthus retroflexus (AMARE) in the same assay as above. Conditions: 312 h, rate 250 g/ha, evaluated after 13 days, read-out: Pre-emergence activity AMARE (100=total damage to plant; 0=no damage to plant).
Type: in vivo
Procedure, shortened: as §1

Point of comparison: `CCc1ccc(-c2ccc(Cl)nc2)cc1C1=C(O)C(C)(C)C(=O)C(C)(C)C1=O` [Compound B-9], pest or weed control at 250 g/ha 0%. Against it:
- CCc1ccc(-c2ccc(Cl)c(C(F)(F)F)c2)cc1C1=C(O)C(C)(C)C(=O)C(C)(C)C1=O [Compound B-10] — the same, 0%
- CCc1ccc(-c2ccc(Cl)c(F)c2)cc1C1=C(O)C(C)(C)C(=O)C(C)(C)C1=O [Compound B-12] — the same, 0%

Each molecule was assayed on Solanum nigrum (SOLNI) in the same assay as above. Conditions: 312 h, rate 250 g/ha, evaluated after 13 days, read-out: Pre-emergence activity SOLNI (100=total damage to plant; 0=no damage to plant).
Type: in vivo
Procedure, shortened: as §1

Point of comparison: `CCc1ccc(-c2ccc(Cl)c(C(F)(F)F)c2)cc1C1=C(O)C(C)(C)C(=O)C(C)(C)C1=O` [Compound B-10], pest or weed control at 250 g/ha 20%. Against it:
- CCc1ccc(-c2ccc(Cl)nc2)cc1C1=C(O)C(C)(C)C(=O)C(C)(C)C1=O [Compound B-9] — lower, 0%
- CCc1ccc(-c2ccc(Cl)c(F)c2)cc1C1=C(O)C(C)(C)C(=O)C(C)(C)C1=O [Compound B-12] — lower, 0%

What follows are molecules tested on Avena fatua (AVEFA) in the same assay as above. Conditions: 312 h, rate 250 g/ha, evaluated after 13 days, read-out: Pre-emergence activity AVEFA (100=total damage to plant; 0=no damage to plant).
Type: in vivo
Procedure, shortened: as §1

Point of comparison: `CCc1ccc(-c2ccc(Cl)c(C(F)(F)F)c2)cc1C1=C(O)C(C)(C)C(=O)C(C)(C)C1=O` [Compound B-10], pest or weed control at 250 g/ha 0%. Against it:
- CCc1ccc(-c2ccc(Cl)nc2)cc1C1=C(O)C(C)(C)C(=O)C(C)(C)C1=O [Compound B-9] — the same, 0%
- CCc1ccc(-c2ccc(Cl)c(F)c2)cc1C1=C(O)C(C)(C)C(=O)C(C)(C)C1=O [Compound B-12] — the same, 0%

What follows are molecules tested on Setaria faberi (SETFA) in the same assay as above. Conditions: 312 h, rate 250 g/ha, evaluated after 13 days, read-out: Pre-emergence activity SETFA (100=total damage to plant; 0=no damage to plant).
Type: in vivo
Procedure, shortened: as §1

Point of comparison: `CCc1ccc(-c2ccc(Cl)nc2)cc1C1=C(O)C(C)(C)C(=O)C(C)(C)C1=O` [Compound B-9], pest or weed control at 250 g/ha 0%. Against it:
- CCc1ccc(-c2ccc(Cl)c(C(F)(F)F)c2)cc1C1=C(O)C(C)(C)C(=O)C(C)(C)C1=O [Compound B-10] — higher, 50%
- CCc1ccc(-c2ccc(Cl)c(F)c2)cc1C1=C(O)C(C)(C)C(=O)C(C)(C)C1=O [Compound B-12] — higher, 50%

The molecules below were run on Echinochloa crus-galli (ECHCG) in the same assay as above. Conditions: 312 h, rate 250 g/ha, evaluated after 13 days, read-out: Pre-emergence activity ECHCG (100=total damage to plant; 0=no damage to plant).
Type: in vivo
Procedure, shortened: as §1

Point of comparison: `CCc1ccc(-c2ccc(Cl)c(C(F)(F)F)c2)cc1C1=C(O)C(C)(C)C(=O)C(C)(C)C1=O` [Compound B-10], pest or weed control at 250 g/ha 30%. Against it:
- CCc1ccc(-c2ccc(Cl)nc2)cc1C1=C(O)C(C)(C)C(=O)C(C)(C)C1=O [Compound B-9] — lower, 0%
- CCc1ccc(-c2ccc(Cl)c(F)c2)cc1C1=C(O)C(C)(C)C(=O)C(C)(C)C1=O [Compound B-12] — the same, 30%

Each molecule was assayed on Alopecurus myosuroides (ALOMY) (assay: Example B post-emergence herbicidal activity, glasshouse pot test). Conditions: 312 h, rate 250 g/ha, evaluated after 13 days, read-out: Post-emergence activity ALOMY (100=total damage to plant; 0=no damage to plant).
Type: in vivo
Procedure, shortened: as §1

Point of comparison: `CCc1ccc(-c2ccc(Cl)nc2)cc1C1=C(O)C(C)(C)C(=O)C(C)(C)C1=O` [Compound B-9], pest or weed control at 250 g/ha 40%. Against it:
- CCc1ccc(-c2ccc(Cl)c(C(F)(F)F)c2)cc1C1=C(O)C(C)(C)C(=O)C(C)(C)C1=O [Compound B-10] — the same, 40%
- CCc1ccc(-c2ccc(Cl)c(F)c2)cc1C1=C(O)C(C)(C)C(=O)C(C)(C)C1=O [Compound B-12] — higher, 60%

These molecules were tested on Amaranthus retroflexus (AMARE) in the same assay as above. Conditions: 312 h, rate 250 g/ha, evaluated after 13 days, read-out: Post-emergence activity AMARE (100=total damage to plant; 0=no damage to plant).
Type: in vivo
Procedure, shortened: as §1

Point of comparison: `CCc1ccc(-c2ccc(Cl)c(C(F)(F)F)c2)cc1C1=C(O)C(C)(C)C(=O)C(C)(C)C1=O` [Compound B-10], pest or weed control at 250 g/ha 40%. Against it:
- CCc1ccc(-c2ccc(Cl)nc2)cc1C1=C(O)C(C)(C)C(=O)C(C)(C)C1=O [Compound B-9] — the same, 40%
- CCc1ccc(-c2ccc(Cl)c(F)c2)cc1C1=C(O)C(C)(C)C(=O)C(C)(C)C1=O [Compound B-12] — lower, 30%

Each molecule was assayed on Solanum nigrum (SOLNI) in the same assay as above. Conditions: 312 h, rate 250 g/ha, evaluated after 13 days, read-out: Post-emergence activity SOLNI (100=total damage to plant; 0=no damage to plant).
Type: in vivo
Procedure, shortened: as §1

Point of comparison: `CCc1ccc(-c2ccc(Cl)c(F)c2)cc1C1=C(O)C(C)(C)C(=O)C(C)(C)C1=O` [Compound B-12], pest or weed control at 250 g/ha 0%. Against it:
- CCc1ccc(-c2ccc(Cl)nc2)cc1C1=C(O)C(C)(C)C(=O)C(C)(C)C1=O [Compound B-9] — higher, 20%
- CCc1ccc(-c2ccc(Cl)c(C(F)(F)F)c2)cc1C1=C(O)C(C)(C)C(=O)C(C)(C)C1=O [Compound B-10] — the same, 0%

Each molecule was assayed on Avena fatua (AVEFA) in the same assay as above. Conditions: 312 h, rate 250 g/ha, evaluated after 13 days, read-out: Post-emergence activity AVEFA (100=total damage to plant; 0=no damage to plant).
Type: in vivo
Procedure, shortened: as §1

Point of comparison: `CCc1ccc(-c2ccc(Cl)c(F)c2)cc1C1=C(O)C(C)(C)C(=O)C(C)(C)C1=O` [Compound B-12], pest or weed control at 250 g/ha 0%. Against it:
- CCc1ccc(-c2ccc(Cl)nc2)cc1C1=C(O)C(C)(C)C(=O)C(C)(C)C1=O [Compound B-9] — the same, 0%
- CCc1ccc(-c2ccc(Cl)c(C(F)(F)F)c2)cc1C1=C(O)C(C)(C)C(=O)C(C)(C)C1=O [Compound B-10] — higher, 20%

These molecules were tested on Setaria faberi (SETFA) in the same assay as above. Conditions: 312 h, rate 250 g/ha, evaluated after 13 days, read-out: Post-emergence activity SETFA (100=total damage to plant; 0=no damage to plant).
Type: in vivo
Procedure, shortened: as §1

Point of comparison: `CCc1ccc(-c2ccc(Cl)nc2)cc1C1=C(O)C(C)(C)C(=O)C(C)(C)C1=O` [Compound B-9], pest or weed control at 250 g/ha 70%. Against it:
- CCc1ccc(-c2ccc(Cl)c(C(F)(F)F)c2)cc1C1=C(O)C(C)(C)C(=O)C(C)(C)C1=O [Compound B-10] — higher, 80%
- CCc1ccc(-c2ccc(Cl)c(F)c2)cc1C1=C(O)C(C)(C)C(=O)C(C)(C)C1=O [Compound B-12] — higher, 90%

These molecules were tested on Echinochloa crus-galli (ECHCG) in the same assay as above. Conditions: 312 h, rate 250 g/ha, evaluated after 13 days, read-out: Post-emergence activity ECHCG (100=total damage to plant; 0=no damage to plant).
Type: in vivo
Procedure, shortened: as §1

Point of comparison: `CCc1ccc(-c2ccc(Cl)c(F)c2)cc1C1=C(O)C(C)(C)C(=O)C(C)(C)C1=O` [Compound B-12], pest or weed control at 250 g/ha 100%. Against it:
- CCc1ccc(-c2ccc(Cl)nc2)cc1C1=C(O)C(C)(C)C(=O)C(C)(C)C1=O [Compound B-9] — lower, 80%
- CCc1ccc(-c2ccc(Cl)c(C(F)(F)F)c2)cc1C1=C(O)C(C)(C)C(=O)C(C)(C)C1=O [Compound B-10] — lower, 90%
